These results are taken from patent US8846746B2, “Pyrazole compound and pharmaceutical use thereof” (Japan Tobacco Inc., priority 2011, dated 2014).

The target in the first experiment is human SGLT1 (Homo sapiens (Human), UniProt P13866). Nature of the experiment: SGLT1 inhibitory activity: 14C-AMG uptake into CHO-K1 cell line stably expressing human SGLT1. In kind it is cell-based. Conditions: 14C-AMG uptake, CHO-K1 cells expressing human SGLT1. The method, then: SGLT1 inhibitory activity of a test compound (IC50 value) was calculated based on an amount of intake into a cell of labeled α-methyl-D-glucopyranoside (^14C-AMG) which is transported by SGLT1.
Chain of human SGLT1 (P13866 whole entry): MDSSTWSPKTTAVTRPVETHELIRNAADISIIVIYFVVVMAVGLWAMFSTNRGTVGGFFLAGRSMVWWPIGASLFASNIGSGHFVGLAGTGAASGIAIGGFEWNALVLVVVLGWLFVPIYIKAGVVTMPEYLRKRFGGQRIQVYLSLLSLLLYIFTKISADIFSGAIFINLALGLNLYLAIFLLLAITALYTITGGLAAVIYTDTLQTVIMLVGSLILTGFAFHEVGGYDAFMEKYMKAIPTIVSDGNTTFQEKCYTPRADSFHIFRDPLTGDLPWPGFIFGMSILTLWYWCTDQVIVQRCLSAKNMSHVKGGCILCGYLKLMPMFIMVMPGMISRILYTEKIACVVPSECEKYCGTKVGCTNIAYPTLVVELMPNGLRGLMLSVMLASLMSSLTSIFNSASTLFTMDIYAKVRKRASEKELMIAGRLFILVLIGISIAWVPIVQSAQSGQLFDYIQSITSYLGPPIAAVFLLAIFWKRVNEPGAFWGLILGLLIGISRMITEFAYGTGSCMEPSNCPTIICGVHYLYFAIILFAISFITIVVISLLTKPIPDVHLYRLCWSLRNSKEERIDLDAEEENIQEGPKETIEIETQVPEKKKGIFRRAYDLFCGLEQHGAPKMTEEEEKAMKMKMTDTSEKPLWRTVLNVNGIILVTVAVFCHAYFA
1) Construction of Human SGLT1 Expression Plasmid
A DNA fragment containing human SGLT1, wherein NheI recognition and cleavage sequence was added upstream of a Kozac consensus sequence of the vector; and a stop codon (TAG) and a SalI recognition and cleavage sequence was added just downstream of a coding region of the human SGLT1, was amplified by PCR using pCMV6-hSGLT1 (OriGene) as a template. The purified DNA fragment was cleaved by restriction enzymes NheI and SalI, and the obtained fragment was ligated into pcDNA3.1 (+) which was cleaved by NheI and XhoI to construct human SGLT1 expression plasmid.
2) Establishment of Stable Cell Lines Expressing Human SGLT1
A human SGLT1 expression plasmid pcDNA-hSGLT1 was transfected into CHO-K1 cells by Lipofectamine-2000 (Invitrogen). The cells were cultured in the presence of G418 (Nakalai tesque) and drug-resistant cells were selected. A cell line having the highest S/B ratio of an amount of ^14C-AMG uptake per cell treated by solvent to an amount of ^14C-AMG uptake per cell treated by phlorizin (SGLT inhibitor) was selected from the drug-resistant cells as a stable cell lines expressing human SGLT1.
3) Evaluation of SGLT1 Inhibitory Activity
The stable cell line expressing human SGLT1 was seeded at 5×10^4 cells/well on BioCoat™ Poly-D-Lysine 96 well plate with Lid (Becton Dickinson and Company) and cultured at 37° C. under 5% CO2 overnight. The medium was replaced with 100 μL/well of a Na (−) buffer (140 mM choline chloride, 2 mM KCl, 1 mM MgCl2, 1 mM CaCl2, 10 mM HEPES, 5 mM Tris, pH7.4) followed by incubation for 20 minutes at 37° C. under 5% CO2. After removing the Na (−) buffer, a test compound solution which was prepared from Na (+) buffer (140 mM NaCl, 2 mM KCl, 1 mM MgCl2, 1 mM CaCl2, 10 mM HEPES, 5 mM Tris, pH7.4) containing BSA was added thereto at 40 μL/well. In addition, Na (+) buffer containing 8 kBq of ^14C-AMG and 2 mM AMG was added thereto at 40 μL/well, and was mixed well. Na (−) buffer containing BSA was added to a blank well at 40 μL/well and additionally adding a Na (+) buffer containing 8 kBq of ^14C-AMG and 2 mM AMG, and was mixed well. Cells were incubated for 1 hour at 37° C. under 5% CO2. After the reaction, the cells were washed twice with 100 μL/well of iced wash buffer (100 mM AMG, 140 mM choline chloride, 2 mM KCl, 1 mM MgCl2, 1 mM CaCl2, 10 mM HEPES, 5 mM Tris, pH7.4), then lysed in 50 μL/well of a 0.2N aqueous solution of NaOH. The cell lysate was transferred to OptiPlate96 (Perkin-Elmer) and 100 μL/well of MicroScint-40 (Perkin-Elmer) was dispensed. The radioactivity was counted by TOPCOUNT NXT (Perkin-Elmer).
A data was obtained by deducting the average value (CPM) of blank wells from the average value (CPM) of each treated well. The inhibition ratio (%) was calculated by the following formula: inhibition rate (%)=[(A−B)/A]×100, where A is a data of the solvent control, and B is a data of a test compound.
For orientation: IC50 means the concentration needed to halve the response being measured. Consider `O=C1C[C@H](C(=O)Nc2cc(-c3cccc(Cl)c3)n(-c3ccccc3)n2)CN1` [Example 39], for which the half-maximal inhibitory concentration (IC50) was determined as 350 nM.

The molecule `O=C1C[C@@H](C(=O)Nc2cc(C3CCCCC3)n(-c3ccccc3)n2)CN1` [Example 40] had a half-maximal inhibitory concentration (IC50) of 650 nM.

Turning to `O=C1C[C@H](C(=O)Nc2cc(C3CCCCC3)n(-c3ccccc3)n2)CN1` [Example 41], the IC50 was determined as 1900 nM.

As for `CCc1cccc(-c2cc(NC(=O)[C@H]3CNC(=O)C3)nn2-c2ccccc2)c1` [Example 43], the 50% inhibitory concentration (IC50) was determined as 11 nM.

`CCc1cccc(-c2cc(NC(=O)[C@@H]3CNC(=O)C3)nn2-c2ccccc2)c1` [Example 44]: the midpoint of inhibition, the IC50, lay at 34 nM.

Consider `CCCCc1cccc(-c2cc(NC(=O)[C@H]3CNC(=O)C3)nn2-c2ccccc2)c1` [Example 45], for which the IC50 stood at 4.3 nM.

Turning to `CCCCc1cccc(-c2cc(NC(=O)[C@@H]3CNC(=O)C3)nn2-c2ccccc2)c1` [Example 46], the 50% inhibitory concentration (IC50) was found to be 3.7 nM.

In turn, `O=C1C[C@@H](C(=O)Nc2cc(C3=CCCCC3)n(-c3ccccc3)n2)CN1` [Example 47] gave an IC50 of 420 nM.

`CCCc1cccc(-c2cc(NC(=O)[C@H]3CNC(=O)C3)nn2-c2ccc(C)cc2)c1` [Example 48]: it took 3.5 nM to reach half-maximal inhibition (IC50).

As for `CCCc1cccc(-c2cc(NC(=O)[C@@H]3CNC(=O)C3)nn2-c2ccc(C)cc2)c1` [Example 49], the IC50 is 12 nM.

Molecule `CCCc1cc(-c2cc(NC(=O)[C@H]3CNC(=O)C3)nn2-c2ccccc2)ccc1F` [Example 50] gave a half-inhibitory concentration (IC50) of 22 nM.

For the molecule `CCCc1cc(-c2cc(NC(=O)[C@@H]3CNC(=O)C3)nn2-c2ccccc2)ccc1F` [Example 51], the midpoint of inhibition, the IC50, lay at 80 nM.

As for `CCC(C)(C)c1cccc(-c2cc(NC(=O)[C@H]3CNC(=O)C3)nn2-c2ccccc2)c1` [Example 52], the IC50 was 3.7 nM.

As to `CCC(C)(C)c1cccc(-c2cc(NC(=O)[C@@H]3CNC(=O)C3)nn2-c2ccccc2)c1` [Example 53], it took 3.8 nM to reach half-maximal inhibition (IC50).

Take `CC(C)c1cccc(-c2cc(NC(=O)[C@H]3CNC(=O)C3)nn2-c2ccccc2)c1` [Example 54]: half-maximal inhibition (IC50) required 10 nM.

Regarding `CC(C)c1cccc(-c2cc(NC(=O)[C@@H]3CNC(=O)C3)nn2-c2ccccc2)c1` [Example 55], the 50% inhibitory concentration (IC50) was determined as 18 nM.

On to `Cc1ccccc1-c1cc(NC(=O)[C@H]2CNC(=O)C2)nn1-c1ccccc1` [Example 56], for which inhibition was half-maximal at 14300 nM (IC50).

For the molecule `Cc1cccc(-c2cc(NC(=O)[C@H]3CNC(=O)C3)nn2-c2ccccc2)c1` [Example 57], the 50% inhibitory concentration (IC50) was determined as 230 nM.

`Cc1ccc(-c2cc(NC(=O)[C@H]3CNC(=O)C3)nn2-c2ccccc2)cc1` [Example 58] showed an IC50 of 3500 nM.

Molecule `O=C1C[C@@H](C(=O)Nc2cc(C3CCCCCC3)n(-c3ccccc3)n2)CN1` [Example 62] returned an IC50 of 470 nM.

In turn, `O=C1C[C@@H](C(=O)Nc2cc(C3CCCC3)n(-c3ccccc3)n2)CN1` [Example 63] came in with a half-inhibitory concentration (IC50) of 2400 nM.

With `CCCc1cccc(-c2cc(NC(=O)[C@H]3CNC(=O)C3)nn2C2CCCC2)c1` [Example 64], the IC50 was determined as 12 nM.

`CCCc1cccc(-c2cc(NC(=O)[C@@H]3CNC(=O)C3)nn2C2CCCC2)c1` [Example 65] came in with an IC50 of 40 nM.

In the case of `CCCc1cccc(-c2cc(NC(=O)[C@H]3CNC(=O)C3)nn2CC(F)(F)F)c1` [Example 66], the IC50 amounted to 210 nM.

Take `CCCc1cccc(-c2cc(NC(=O)[C@H]3CNC(=O)C3)nn2C2CCCCCC2)c1` [Example 68]: the IC50 was determined as 6.7 nM.

For `CCCc1cccc(-c2cc(NC(=O)[C@@H]3CNC(=O)C3)nn2C2CCCCCC2)c1` [Example 69], the IC50 turned out to be 18 nM.

Molecule `CC(C)Cc1cccc(-c2cc(NC(=O)[C@H]3CNC(=O)C3)nn2-c2ccccc2)c1` [Example 70] yielded an IC50 of 1.6 nM.

As for `CC(C)Cc1cccc(-c2cc(NC(=O)[C@@H]3CNC(=O)C3)nn2-c2ccccc2)c1` [Example 71], half-maximal inhibition (IC50) was put at 3.5 nM.

As to `CCC(F)(F)c1cccc(-c2cc(NC(=O)[C@H]3CNC(=O)C3)nn2-c2ccccc2)c1` [Example 72], the IC50 turned out to be 4.7 nM.

For `CCC(F)(F)c1cccc(-c2cc(NC(=O)[C@@H]3CNC(=O)C3)nn2-c2ccccc2)c1` [Example 73], the IC50 amounted to 13 nM.

Regarding `CCCc1cc(F)cc(-c2cc(NC(=O)[C@H]3CNC(=O)C3)nn2-c2ccccc2)c1` [Example 74], the IC50 was found to be 3.1 nM.

In turn, `CCCc1cc(F)cc(-c2cc(NC(=O)[C@@H]3CNC(=O)C3)nn2-c2ccccc2)c1` [Example 75] had an IC50 of 3.9 nM.

In turn, `CCCc1cccc(-c2cc(NC(=O)[C@H]3CNC(=O)C3)nn2-c2cccc(C)c2)c1` [Example 76] had an IC50 of 1.7 nM.

In the case of `CCCc1cccc(-c2cc(NC(=O)[C@@H]3CNC(=O)C3)nn2-c2cccc(C)c2)c1` [Example 77], the IC50 amounted to 2 nM.

For `CC1(C)CCC=C(c2cc(NC(=O)[C@H]3CNC(=O)C3)nn2-c2ccccc2)C1` [Example 78], inhibition was half-maximal at 7.7 nM (IC50).

For the molecule `CC1(C)C=C(c2cc(NC(=O)[C@H]3CNC(=O)C3)nn2-c2ccccc2)CCC1` [Example 79], the IC50 turned out to be 22 nM.

`CC(C)(O)c1cccc(-c2cc(NC(=O)[C@H]3CNC(=O)C3)nn2-c2ccccc2)c1` [Example 80] had an IC50 of 220 nM.

The molecule `COC(C)(C)c1cccc(-c2cc(NC(=O)[C@H]3CNC(=O)C3)nn2-c2ccccc2)c1` [Example 82] registered an IC50 of 12 nM.

In the case of `COC(C)(C)c1cccc(-c2cc(NC(=O)[C@@H]3CNC(=O)C3)nn2-c2ccccc2)c1` [Example 83], it took 11 nM to reach half-maximal inhibition (IC50).

For the molecule `CC(C)(C)c1cccc(-c2cc(NC(=O)[C@H]3CNC(=O)C3)nn2C2CCCCCC2)c1` [Example 84], inhibition was half-maximal at 7.2 nM (IC50).

For the molecule `O=C1C[C@@H](C(=O)Nc2cc(-c3cccc(OC(F)(F)F)c3)n(C3CCCCCC3)n2)CN1` [Example 85], the IC50 stood at 50 nM.

Regarding `CCCc1cccc(-c2cc(NC(=O)[C@H]3CNC(=O)C3)nn2C(F)(F)F)c1` [Example 86], half-maximal inhibition (IC50) required 54 nM.

The molecule `CCCc1cccc(-c2cc(NC(=O)[C@@H]3CNC(=O)C3)nn2C(F)(F)F)c1` [Example 87] registered an IC50 of 110 nM.

Molecule `O=C1C[C@@H](C(=O)Nc2cc(-c3cccc(C4CC4)c3)n(-c3ccccc3)n2)CN1` [Example 92] came in with an IC50 of 25 nM.

Molecule `O=C1C[C@H](C(=O)Nc2cc(-c3cccc(C4CC4)c3)n(-c3ccccc3)n2)CN1` [Example 93] showed an IC50 of 31 nM.

The molecule `CCCc1cccc(-c2cc(NC(=O)[C@H]3CNC(=O)C3)nn2-c2cccc(Cl)c2)c1` [Example 95] came in with a 50% inhibitory concentration (IC50) of 2.4 nM.

With `CCCc1cccc(-c2cc(NC(=O)[C@@H]3CNC(=O)N3)nn2-c2ccccc2)c1` [Example 97], the half-inhibitory concentration (IC50) was 10 nM.

Regarding `CCCc1cccc(-c2cc(NC(=O)[C@H]3CNC(=O)C3)nn2Cc2ccccc2)c1` [Example 98], the midpoint of inhibition, the IC50, lay at 30 nM.

Molecule `CCCc1cccc(-c2cc(NC(=O)[C@@H]3CNC(=O)C3)nn2Cc2ccccc2)c1` [Example 99] registered an IC50 of 73 nM.

As for `CCCc1cccc(-c2cc(NC(=O)[C@H]3CNC(=O)C3)nn2-c2ccccc2Cl)c1` [Example 100], the IC50 turned out to be 1.9 nM.

As to `CCCc1cccc(-c2cc(NC(=O)[C@@H]3CNC(=O)C3)nn2-c2ccccc2Cl)c1` [Example 101], half-maximal inhibition (IC50) was put at 2.4 nM.

Still in this experiment, the particulars now being: CHO-K1, at 0.1 uM.
What is called inhibition is the drop in the measured response relative to a control, in per cent. For `CCCc1cccc(-c2cc(NC(=O)[C@@H]3CNC(=O)C3)nn2CC(F)(F)F)c1` [Example 67], at 0.1 µM the inhibition was 29%.

The experiment is the same for the next values; noted with them: CHO-K1, at 0.3 uM.
Regarding `CC(C)(O)c1cccc(-c2cc(NC(=O)[C@@H]3CNC(=O)C3)nn2-c2ccccc2)c1` [Example 81], the inhibition at 0.3 µM was determined as 43%.
